Reference: patent US20260043028A1, “TREATMENT OF SPINAL MUSCULAR ATROPHY” (University of Pittsburgh - Of the Commonwealth System of …, priority 2023, published 2026)

Tested on: human patients with Type 3 SMA
Test: Four-week spinal cord stimulation (SCS) trial in SMA patients with or without concurrent SMA therapy (Nusinersen), with long-term follow-up
Type: in vivo
Description: This example describes a particular method that can be used to treat SMA in a patient by applying a therapeutically effective amount of an electrical stimulus to the dorsolateral aspect of the spinal cord containing sensory neurons innervating a body region of the patient with motor impairment due to SMA. Although particular methods and protocols are provided, one skilled in the art will appreciate that variations can be made without substantially affecting the treatment. Three patients with SMA were identified and participated in this spinal cord stimulation trial. […]
Three human patients with Type 3 SMA that show quantifiable motor deficits of the legs are selected for treatment. […]
This example aims to measure immediate, end-of-study, and long-term effects of SCS on SMA including various clinical outcomes. […] As used herein, “immediate” refers to effects measured during the four-week study and relates to the usage of SCS. […] As used herein, “end-of-study” refers to effects measured within about 1 week before or after the end of the four-week study, around the time that the SCS electrodes are removed. […] In particular, as used herein, “long-term” refers to effects measured 50+ days after the electrodes are removed and relates to changes in motor ability over time without the continuous application of SCS. […]

## Nusinersen
SMA02 and SMA03 (Nusinersen plus SCS) vs SMA01 (SCS only), during the four-week experiment
  results throughout the course of the four-week experiment, compared with the patient not treated with an SMA therapy: did not exhibit substantially better results
SMA02 and SMA03 on SMA therapy during SCS, long-term follow-up (50+ days after explant), SMA01 without therapy showed long-term degradation
  long-term course of the beneficial effects of SCS: long-term stability in the beneficial effects of SCS
